Common to all, as to type: cell-based
Experiment [1] deals with human TRPA1 (Homo sapiens (Human), UniProt O75762). Put plainly: 45Calcium uptake assay, AITC induced, human TRPA1 expressing CHO cells. As to conditions: AITC 30 micromolar, read-out: IC50 values hTRPA1. As for the experimental part:
As contemplated herein, the IC50 value is measured by the following method. The inhibition of TRPA1 receptor activation is measured as inhibition of allylisothiocyanate (AITC) induced cellular uptake of radioactive calcium. Test solution of test compound is prepared in a suitable solvent using appropriate method. Human TRPA1 expressing CHO cells are grown in suitable medium. Cells are treated with test compounds followed by addition of AITC. Cells are washed and lysed. Radioactivity in the lysate is measured in Packard Top count after addition of liquid scintillant. The concentration response curves for compounds are plotted as a % of maximal response obtained in the absence of test antagonist, and the IC50 values are calculated from such concentration response curve by nonlinear regression analysis using GraphPad PRISM software.
The illustrative TRPA1 antagonists of the present invention were screened for TRPA1 activity according to a modified procedure described in Tóth, A. et al., Life Sciences 2003, 73, 487-498. The screening of the compounds can be carried out by other methods and procedures known to persons skilled in the art.
Screening for TRPA1 Antagonist Using the 45Calcium Uptake Assay:
The inhibition of TRPA1 receptor activation was measured as inhibition of allylisothiocyanate (AITC) induced cellular uptake of radioactive calcium. Test compounds were dissolved in DMSO to prepare 10 mM stock solution and then diluted using plain medium with 0.1% BSA and 1.8 mM CaCl2 to get desired concentration. Final concentration of DMSO in the reaction was 0.5% (v/v). Human TRPA1 expressing CHO cells were grown in F-12 DMEM medium with 10% FBS, 1% penicillin-streptomycin solution, and 400 μg/ml of G-418. Cells were seeded 24 h prior to the assay in 96 well plates so as to get ˜50,000 cells per well on the day of experiment. Cells were treated with test compounds for 10 min followed by addition of AITC at a final concentration of 30 micromolar and 5 μCi/ml 45Ca+2 for 3 min at 25° C. Cells were washed and lysed using buffer containing 1% Triton X-100, 0.1% deoxycholate and 0.1% SDS. Radioactivity in the lysate was measured in Packard Top count after addition of liquid scintillant.
Concentration response curves were plotted as a % of maximal response obtained in the absence of test antagonist. IC50 value was calculated from concentration response curve by nonlinear regression analysis using GraphPad PRISM software.

Experiment [2] addresses human TRPV1 (Homo sapiens (Human), UniProt Q8NER1). The experiment can be described thus: Radiometric calcium selectivity assay, CHO cells expressing human TRPV1 (capsaicin). The note with it: read-out: IC50 values hTRPV1. As for the experimental part:
(§1) For selectivity screening, CHO cells stably expressing human TRPV1, human TRPV3, human TRPV4, or human TRPM8 were generated in-house and maintained in DMEM F-12 supplemented with 10% FBS and G418. All the cell types were cultured at 37° C. in humidified air containing 5% CO2. Radiometric calcium assay was performed as described above with some minor modifications. Assay was carried out in total volume of 200 μl at 30° C. (for TRPV1), 32° C. (for TRPV3) and 25° C. (for TRPV4 and TRPM8). Agonists used for selectivity screening of the different TRPs are: Capsaicin for TRPV1,2-aminoethoxydiphenyl borate for TRPV3, 4α-phorbol 12,13-didecanoate for TRPV4 and Icilin for TRPM8. After 2-5 minutes of agonist treatment, drug was washed and lysed in lysis buffer as mentioned above. Radioactivity in the lysate was measured in Packard Top count after addition of liquid scintillant.

Experiment [3] concerns the target human TRPV3 (Homo sapiens (Human), UniProt Q8NET8). The experiment can be described thus: Radiometric calcium selectivity assay, CHO cells expressing human TRPV3 (2-aminoethoxydiphenyl borate). The note with it: read-out: IC50 values hTRPV3. As for the experimental part:
as §1

The target of experiment [4] is human TRPV4 (Homo sapiens (Human), UniProt Q9HBA0). Put plainly: Radiometric calcium selectivity assay, CHO cells expressing human TRPV4 (4α-phorbol 12,13-didecanoate). The note with it: read-out: IC50 values hTRPV4. The method, then: as §1
Experiment [5] has as its target human TRPM8 (Homo sapiens (Human), UniProt Q7Z2W7). Put plainly: Radiometric calcium selectivity assay, CHO cells expressing human TRPM8 (icilin). The note with it: read-out: IC50 values hTRPM8. As for the experimental part:
as §1

Bounds are passed on as bounds.

Chain of human TRPV1 (Q8NER1 whole entry): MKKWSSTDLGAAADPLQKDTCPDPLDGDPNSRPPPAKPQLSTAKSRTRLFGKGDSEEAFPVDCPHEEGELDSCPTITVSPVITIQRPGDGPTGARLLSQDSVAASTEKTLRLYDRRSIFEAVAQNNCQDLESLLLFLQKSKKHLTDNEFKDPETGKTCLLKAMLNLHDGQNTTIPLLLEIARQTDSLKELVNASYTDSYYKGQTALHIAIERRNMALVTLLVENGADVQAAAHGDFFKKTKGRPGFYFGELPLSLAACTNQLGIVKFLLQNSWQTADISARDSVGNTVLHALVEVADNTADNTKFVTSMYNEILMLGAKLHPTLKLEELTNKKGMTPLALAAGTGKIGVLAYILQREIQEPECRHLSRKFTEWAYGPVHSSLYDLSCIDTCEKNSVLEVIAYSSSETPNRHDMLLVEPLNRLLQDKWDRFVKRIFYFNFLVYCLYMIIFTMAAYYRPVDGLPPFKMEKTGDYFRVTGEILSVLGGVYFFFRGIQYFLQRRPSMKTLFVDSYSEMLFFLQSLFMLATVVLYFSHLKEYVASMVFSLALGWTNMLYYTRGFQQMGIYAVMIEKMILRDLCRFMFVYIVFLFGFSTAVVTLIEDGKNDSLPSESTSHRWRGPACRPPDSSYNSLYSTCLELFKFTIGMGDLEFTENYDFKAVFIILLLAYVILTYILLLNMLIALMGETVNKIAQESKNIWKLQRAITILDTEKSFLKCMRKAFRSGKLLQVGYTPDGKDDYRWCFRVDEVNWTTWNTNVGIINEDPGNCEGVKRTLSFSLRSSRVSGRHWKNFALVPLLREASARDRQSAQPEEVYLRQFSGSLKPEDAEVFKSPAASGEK
Chain of human TRPV3 (Q8NET8 whole entry): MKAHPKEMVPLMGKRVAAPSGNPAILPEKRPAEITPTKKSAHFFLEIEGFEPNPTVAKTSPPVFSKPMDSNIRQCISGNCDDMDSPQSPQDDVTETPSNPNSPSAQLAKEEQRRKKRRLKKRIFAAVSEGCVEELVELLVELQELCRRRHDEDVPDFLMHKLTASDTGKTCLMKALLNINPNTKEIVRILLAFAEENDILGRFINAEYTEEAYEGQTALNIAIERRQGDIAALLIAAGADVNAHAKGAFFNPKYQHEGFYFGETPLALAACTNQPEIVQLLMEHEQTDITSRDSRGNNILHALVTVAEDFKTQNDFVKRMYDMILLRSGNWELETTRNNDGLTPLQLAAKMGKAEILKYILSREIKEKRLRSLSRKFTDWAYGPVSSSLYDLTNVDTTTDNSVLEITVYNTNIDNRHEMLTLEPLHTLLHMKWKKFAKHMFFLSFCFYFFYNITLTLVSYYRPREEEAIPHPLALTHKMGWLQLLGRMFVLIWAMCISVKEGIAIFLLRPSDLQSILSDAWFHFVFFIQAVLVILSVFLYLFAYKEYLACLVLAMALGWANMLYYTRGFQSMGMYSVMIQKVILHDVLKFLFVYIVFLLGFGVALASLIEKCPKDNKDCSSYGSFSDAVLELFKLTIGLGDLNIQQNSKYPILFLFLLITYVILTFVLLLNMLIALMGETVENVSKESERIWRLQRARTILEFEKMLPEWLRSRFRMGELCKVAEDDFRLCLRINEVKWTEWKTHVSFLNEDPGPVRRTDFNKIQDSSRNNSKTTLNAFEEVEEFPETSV
Chain of human TRPA1 (O75762 whole entry): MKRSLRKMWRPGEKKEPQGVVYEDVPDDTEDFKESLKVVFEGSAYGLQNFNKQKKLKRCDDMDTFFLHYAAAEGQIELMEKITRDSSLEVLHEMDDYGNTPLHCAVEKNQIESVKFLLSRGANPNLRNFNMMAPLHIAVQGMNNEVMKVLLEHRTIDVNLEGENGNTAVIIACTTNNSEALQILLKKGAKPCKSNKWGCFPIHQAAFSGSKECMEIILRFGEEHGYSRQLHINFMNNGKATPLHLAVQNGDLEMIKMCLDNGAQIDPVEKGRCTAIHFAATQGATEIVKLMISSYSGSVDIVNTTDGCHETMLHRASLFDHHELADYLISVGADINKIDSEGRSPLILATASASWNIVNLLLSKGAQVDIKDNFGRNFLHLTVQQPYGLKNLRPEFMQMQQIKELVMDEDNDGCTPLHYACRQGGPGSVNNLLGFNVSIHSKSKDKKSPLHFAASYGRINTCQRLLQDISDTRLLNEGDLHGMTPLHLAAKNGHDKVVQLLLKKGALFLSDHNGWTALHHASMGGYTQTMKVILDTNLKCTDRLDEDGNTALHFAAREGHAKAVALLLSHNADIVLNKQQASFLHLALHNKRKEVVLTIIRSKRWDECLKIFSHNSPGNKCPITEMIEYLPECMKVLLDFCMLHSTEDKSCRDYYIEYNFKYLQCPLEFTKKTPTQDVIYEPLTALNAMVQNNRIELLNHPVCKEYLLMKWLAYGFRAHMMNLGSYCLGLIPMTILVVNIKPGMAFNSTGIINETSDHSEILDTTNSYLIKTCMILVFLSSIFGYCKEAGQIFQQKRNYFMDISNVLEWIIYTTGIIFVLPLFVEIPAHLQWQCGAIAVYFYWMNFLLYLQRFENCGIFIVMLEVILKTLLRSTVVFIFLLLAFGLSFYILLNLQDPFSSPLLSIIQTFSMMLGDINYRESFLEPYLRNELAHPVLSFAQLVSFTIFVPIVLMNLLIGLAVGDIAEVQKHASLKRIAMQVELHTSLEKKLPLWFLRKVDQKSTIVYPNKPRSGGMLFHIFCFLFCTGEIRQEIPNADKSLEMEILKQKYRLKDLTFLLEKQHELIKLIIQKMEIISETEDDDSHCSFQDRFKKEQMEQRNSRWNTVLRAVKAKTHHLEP
Chain of human TRPV4 (Q9HBA0 whole entry): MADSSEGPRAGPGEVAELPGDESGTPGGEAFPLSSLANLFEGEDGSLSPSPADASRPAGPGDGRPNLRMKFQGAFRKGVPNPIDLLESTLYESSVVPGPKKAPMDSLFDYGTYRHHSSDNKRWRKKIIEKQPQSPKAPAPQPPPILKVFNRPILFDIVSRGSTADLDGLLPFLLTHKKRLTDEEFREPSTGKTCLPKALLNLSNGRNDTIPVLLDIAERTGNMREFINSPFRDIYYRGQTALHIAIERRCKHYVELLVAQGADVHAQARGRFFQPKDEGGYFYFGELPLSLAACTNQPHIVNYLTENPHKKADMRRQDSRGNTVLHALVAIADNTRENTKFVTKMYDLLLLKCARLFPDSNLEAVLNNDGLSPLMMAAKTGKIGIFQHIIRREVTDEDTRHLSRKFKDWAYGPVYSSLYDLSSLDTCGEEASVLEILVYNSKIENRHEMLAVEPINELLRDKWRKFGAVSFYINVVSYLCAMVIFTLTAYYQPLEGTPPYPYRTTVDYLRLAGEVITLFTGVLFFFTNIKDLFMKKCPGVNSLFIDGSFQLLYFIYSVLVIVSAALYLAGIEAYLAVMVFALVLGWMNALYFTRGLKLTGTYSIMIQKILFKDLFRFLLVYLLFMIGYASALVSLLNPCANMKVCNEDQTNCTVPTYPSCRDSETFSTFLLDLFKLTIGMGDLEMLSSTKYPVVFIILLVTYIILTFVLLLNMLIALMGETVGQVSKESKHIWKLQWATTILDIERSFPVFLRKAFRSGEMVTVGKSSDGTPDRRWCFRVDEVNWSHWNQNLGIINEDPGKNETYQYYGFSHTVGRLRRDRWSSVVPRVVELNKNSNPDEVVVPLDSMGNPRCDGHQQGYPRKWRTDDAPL
Chain of human TRPM8 (Q7Z2W7 whole entry): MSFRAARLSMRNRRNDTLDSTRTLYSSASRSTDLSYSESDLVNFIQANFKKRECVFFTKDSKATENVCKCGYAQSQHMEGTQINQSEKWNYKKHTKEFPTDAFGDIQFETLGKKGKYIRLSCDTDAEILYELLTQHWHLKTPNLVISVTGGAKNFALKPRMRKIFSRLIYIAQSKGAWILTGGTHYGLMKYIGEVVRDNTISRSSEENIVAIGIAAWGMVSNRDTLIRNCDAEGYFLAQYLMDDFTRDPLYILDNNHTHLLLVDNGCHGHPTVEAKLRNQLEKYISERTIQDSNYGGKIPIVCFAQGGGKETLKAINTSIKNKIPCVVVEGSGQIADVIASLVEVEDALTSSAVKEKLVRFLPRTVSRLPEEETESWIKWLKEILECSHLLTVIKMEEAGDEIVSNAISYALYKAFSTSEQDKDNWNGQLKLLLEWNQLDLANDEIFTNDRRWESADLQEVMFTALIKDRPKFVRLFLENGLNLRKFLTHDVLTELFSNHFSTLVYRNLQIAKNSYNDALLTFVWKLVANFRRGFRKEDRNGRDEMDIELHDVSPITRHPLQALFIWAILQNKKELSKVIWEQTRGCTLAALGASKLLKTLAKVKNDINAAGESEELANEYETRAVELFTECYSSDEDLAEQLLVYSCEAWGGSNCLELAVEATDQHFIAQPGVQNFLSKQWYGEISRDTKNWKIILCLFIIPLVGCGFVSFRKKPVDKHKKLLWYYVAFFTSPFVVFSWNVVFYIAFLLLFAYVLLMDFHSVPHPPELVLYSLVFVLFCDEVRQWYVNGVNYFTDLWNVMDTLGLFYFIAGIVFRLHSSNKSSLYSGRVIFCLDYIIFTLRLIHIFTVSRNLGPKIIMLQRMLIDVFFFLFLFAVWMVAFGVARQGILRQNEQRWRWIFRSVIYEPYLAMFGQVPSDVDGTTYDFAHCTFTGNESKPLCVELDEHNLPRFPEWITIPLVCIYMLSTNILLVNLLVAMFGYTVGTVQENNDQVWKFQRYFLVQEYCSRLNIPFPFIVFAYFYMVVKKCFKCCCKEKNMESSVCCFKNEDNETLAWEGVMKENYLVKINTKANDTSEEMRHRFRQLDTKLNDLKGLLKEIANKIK

On to `CC(C)CCOc1ccc(-c2csc(NC(=O)Cc3cccc4c3c(=O)n(C)c(=O)n4C)n2)cc1` [Compound 22], for which the half-inhibitory concentration (IC50) in experiment [1] is 0.0798 µM; in experiment [2], over 10 µM; in experiment [3], over 10 µM; in experiment [4], over 1 µM; in experiment [5], over 10 µM.

As to `CC(C)COc1ccc(-c2csc(NC(=O)Cc3cccc4c3c(=O)n(C)c(=O)n4C)n2)cc1` [Compound 23], the half-maximal inhibitory concentration (IC50) in experiment [1] was 0.0439 µM; in experiment [2] it was over 10 µM; in experiment [3] it was over 10 µM; in experiment [4] it was over 1 µM; in experiment [5] it was over 10 µM.

`Cn1c(=O)c2c(CC(=O)Nc3nc(-c4cc(Cl)ccc4F)cs3)cccc2n(C)c1=O` [Compound 24]: the IC50 was 0.138 µM in experiment [1]; over 10 µM in experiment [2]; over 1 µM in experiment [3]; over 10 µM in experiment [4]; over 10 µM in experiment [5].

On to `Cn1c(=O)c2c(CC(=O)Nc3nc(-c4cccc(Cl)c4F)cs3)cccc2n(C)c1=O` [Compound 25], for which the half-inhibitory concentration (IC50) in experiment [1] is 0.0585 µM; in experiment [2], over 10 µM; in experiment [3], over 1 µM; in experiment [4], over 1 µM; in experiment [5] it was over 10 µM.

As for `Cn1c(=O)c2c(CC(=O)Nc3nc(-c4cccc(OC(F)(F)F)c4)cs3)cccc2n(C)c1=O` [Compound 26], the half-inhibitory concentration (IC50) in experiment [1] is 0.0479 µM; in experiment [2], over 10 µM; in experiment [3], over 1 µM; in experiment [4], over 1 µM; in experiment [5], over 10 µM.

For the molecule `Cn1c(=O)c2c(CC(=O)Nc3nc(-c4cccc(F)c4F)cs3)cccc2n(C)c1=O` [Compound 27], the IC50 in experiment [1] is 0.0655 µM; in experiment [2], over 10 µM; in experiment [3], over 10 µM; in experiment [4] it was over 10 µM; in experiment [5], over 10 µM.

As for `Cn1c(=O)c2c(CC(=O)Nc3nc(-c4ccc(C(F)(F)F)c(F)c4F)cs3)cccc2n(C)c1=O` [Compound 28], the IC50 is 0.00649 µM in experiment [1]; over 10 µM in experiment [2]; over 1 µM in experiment [3]; 0.903 µM in experiment [4]; over 10 µM in experiment [5].

As for `Cn1c(=O)c2c(CC(=O)Nc3nc(-c4ccc(OC(F)(F)F)c(F)c4)cs3)cccc2n(C)c1=O` [Compound 29], the IC50 was 0.0114 µM in experiment [1]; over 10 µM in experiment [2]; over 1 µM in experiment [3]; over 10 µM in experiment [4]; over 10 µM in experiment [5].

`Cn1c(=O)c2c(CC(=O)Nc3nc(-c4ccc(OC(F)F)c(Cl)c4)cs3)cccc2n(C)c1=O` [Compound 30]: the IC50 in experiment [1] was 0.034 µM; in experiment [2] it was over 10 µM; in experiment [3], over 10 µM; in experiment [4], over 10 µM; in experiment [5], over 10 µM.

`Cn1c(=O)c2c(CC(=O)Nc3nc(-c4ccc(F)c(C(F)(F)F)c4F)cs3)cccc2n(C)c1=O` [Compound 31]: the IC50 was 0.0173 µM in experiment [1]; over 10 µM in experiment [2]; over 10 µM in experiment [3]; over 10 µM in experiment [4]; over 10 µM in experiment [5].

On to `Cn1c(=O)c2c(CC(=O)Nc3nc(-c4cc(F)c(OCC(F)(F)F)c(F)c4)cs3)cccc2n(C)c1=O` [Compound 32], for which the concentration for half-maximal inhibition (IC50) in experiment [1] is 0.00596 µM; in experiment [2], over 10 µM; in experiment [3], over 10 µM; in experiment [4] it was over 1 µM; in experiment [5] it was over 10 µM.

Take `Cn1c(=O)c2c(CC(=O)Nc3nc(-c4cc(F)c(C(F)(F)F)c(F)c4)cs3)cccc2n(C)c1=O` [Compound 33]: the concentration for half-maximal inhibition (IC50) in experiment [1] is 0.00537 µM; in experiment [2], over 10 µM; in experiment [3], over 10 µM; in experiment [4], under 1 µM; in experiment [5], over 10 µM.

For the molecule `Cn1c(=O)c2c(ccn2CC(=O)Nc2nc(-c3ccc(OC(F)(F)F)cc3)cs2)n(C)c1=O` [Compound 34], the IC50 was 0.0385 µM in experiment [1]; over 10 µM in experiment [2]; over 10 µM in experiment [3]; over 10 µM in experiment [4]; over 10 µM in experiment [5].

Turning to `Cn1c(=O)c2c(ccn2CC(=O)Nc2nc(-c3cc(Cl)c(OCCC(F)(F)F)c(Cl)c3)cs2)n(C)c1=O` [Compound 35], the 50% inhibitory concentration (IC50) is 0.0181 µM in experiment [1]; over 10 µM in experiment [2]; over 10 µM in experiment [3]; over 10 µM in experiment [4]; over 10 µM in experiment [5].

On to `Cn1c(=O)c2c(ccn2CC(=O)Nc2nc(-c3ccc(C(F)(F)F)c(F)c3)cs2)n(C)c1=O` [Compound 36], for which the 50% inhibitory concentration (IC50) is 0.0499 µM in experiment [1]; over 10 µM in experiment [2]; over 10 µM in experiment [3]; over 10 µM in experiment [4]; over 10 µM in experiment [5].

As for `Cn1c(=O)c2c(cnn2CC(=O)Nc2nc(-c3cc(Cl)c(OCC(C)(C)C)c(Cl)c3)cs2)n(C)c1=O` [Compound 37], the IC50 is 0.0123 µM in experiment [1]; over 10 µM in experiment [2]; over 10 µM in experiment [3]; over 10 µM in experiment [4]; over 10 µM in experiment [5].

With `Cn1nc2c(c1CC(=O)Nc1nc(-c3ccc(C(F)(F)F)c(F)c3)cs1)c(=O)n(C)c(=O)n2C` [Compound 38], the IC50 was 0.0159 µM in experiment [1]; over 10 µM in experiment [2]; over 10 µM in experiment [3]; over 1 µM in experiment [4]; over 10 µM in experiment [5].

Regarding `Cn1nc2c(c1CC(=O)Nc1nc(-c3ccc(C(F)(F)F)cc3)cs1)c(=O)n(C)c(=O)n2C` [Compound 39], the concentration for half-maximal inhibition (IC50) was 0.0266 µM in experiment [1]; over 10 µM in experiment [2]; over 10 µM in experiment [3]; over 1 µM in experiment [4]; over 10 µM in experiment [5].

For `Cn1c(=O)c2c(cnn2CC(=O)Nc2nc(-c3cc(F)c(OCC(C)(C)C)c(F)c3)cs2)n(C)c1=O` [Compound 40], the IC50 in experiment [1] is 0.0228 µM; in experiment [2] it was over 10 µM; in experiment [3], over 10 µM; in experiment [4] it was over 10 µM; in experiment [5], over 10 µM.

`Cn1nc2c(c1CC(=O)Nc1nc(-c3ccc(OC(F)(F)F)c(F)c3)cs1)c(=O)n(C)c(=O)n2C` [Compound 41]: the 50% inhibitory concentration (IC50) in experiment [1] is 0.011 µM; in experiment [2], over 10 µM; in experiment [3], over 10 µM; in experiment [4] it was over 1 µM; in experiment [5] it was over 10 µM.

For `Cn1c(=O)c2c(cnn2CC(=O)Nc2nc(-c3cc(F)c(OCC(C)(C)C)c(Cl)c3)cs2)n(C)c1=O` [Compound 42], the 50% inhibitory concentration (IC50) in experiment [1] was 0.0114 µM; in experiment [2] it was over 10 µM; in experiment [3] it was over 10 µM; in experiment [4], over 10 µM; in experiment [5] it was over 10 µM.

As for `Cn1c(=O)c2c(cnn2CC(=O)Nc2nc(-c3cc(F)c(OCC4CCC4)c(F)c3)cs2)n(C)c1=O` [Compound 43], the IC50 in experiment [1] is 0.0184 µM; in experiment [2] it was over 10 µM; in experiment [3] it was over 10 µM; in experiment [4], over 1 µM; in experiment [5] it was over 10 µM.

Turning to `Cn1c(=O)c2c(cnn2CC(=O)Nc2nc(-c3ccc(OCC(C)(C)C)c(F)c3)cs2)n(C)c1=O` [Compound 45], the IC50 was 0.0264 µM in experiment [1]; over 10 µM in experiment [2]; over 1 µM in experiment [3]; over 1 µM in experiment [4]; over 10 µM in experiment [5].

As to `CC(C)c1sc2c(c1CC(=O)Nc1nc(-c3ccc(C(F)(F)F)c(F)c3)cs1)c(=O)n(C)c(=O)n2C` [Compound 46], the IC50 in experiment [1] is 0.0413 µM; in experiment [2], over 10 µM; in experiment [3], over 10 µM; in experiment [4] it was over 10 µM; in experiment [5] it was over 1 µM.

The term IC50 denotes the point on the concentration scale where inhibition reaches its midpoint.

Source of the values: patent US9186360B2, “Treatment of respiratory disorders using TRPA1 antagonists” (GLENMARK PHARMACEUTICALS S.A., priority 2011, dated 2015).
